Experimental data taken from article PMC5011342, “A high throughput drug screening assay to identify compounds that promote oligodendrocyte differentiation using acutely dissociated and purified oligodendrocyte precursor cells” (BMC Research Notes, 2016).
Where two headings read alike, the source gives them in different places.

Tests used:
expanded OPCs = assay: cells; conditions: for viability at 0.1 µM / viability at 1 µM / viability at 10 µM: Rattus norvegicus, 72 h; for 0.1 µM (% DMSO) / 1 µM (% DMSO) / 10 µM (% DMSO): alamarBlue viability of expanded OPCs; for 0.1 µM (% DMSO): compound at 0.1 µM; for 1 µM (% DMSO): compound at 1 µM; for 10 µM (% DMSO): compound at 10 µM
Summary of the method: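 Expanded OPCs seeded at 10,000 cells/well in differentiation media, then exposed to NCC library compounds at 10, 1 and 0.1 µM (quadruplicate, 0.1% DMSO) for three days. Viability read as alamarBlue fluorescence (560/590 nm) after 4 h at 37 °C; tunicamycin 5 ng/ml served as toxicity control.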

[1] = system: acutely dissociated and purified rat OPCs; assay: Acute OL differentiation assay (MBP expression/cell, immunofluorescent image quantification); format: cell-based; conditions: sheet "All OLga data"; for activation at 2 µM / activation at 10 µM / activation at 0.4 µM: Rattus norvegicus
Summary of the method: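 Oligodendrocyte precursor cells were enriched from P6-P7 Sprague–Dawley rat brains by immunopanning (RAN-2 and GalC depletion, O4 selection), plated at 5000 cells/well in serum-free, mitogen-free differentiation media on PDL/laminin 96-well view plates, centrifuged at 200×g, and pre-incubated 1–2 h before test compounds were added in quadruplicate. On DIV4, cells were fixed, stained for MBP and DAPI, imaged automatically, and MBP expression per cell was quantified.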

[2] = read-out: 0.1 µM (% DMSO), alamarBlue viability of expanded OPCs, compound at 0.1 µM, sheet All Tox data
[3] = read-out: 1 µM (% DMSO), alamarBlue viability of expanded OPCs, compound at 1 µM, sheet All Tox data
[4] = read-out: 10 µM (% DMSO), alamarBlue viability of expanded OPCs, compound at 10 µM, sheet All Tox data
[5] = 2 uM test compound, relative to quetiapine, read-out: OL differentiation, 2 uM (% Quet)
[6] = 10 uM test compound, relative to quetiapine, read-out: OL differentiation, 10 uM (% Quet)
[7] = test compound at 2 uM, MBP expression relative to quetiapine, NCC library screen, read-out: 2 uM (% Quet)
[8] = test compound at 10 uM, MBP expression relative to quetiapine, NCC library screen, read-out: 10 uM (% Quet)
[9] = 0.4 uM test compound, relative to quetiapine, read-out: OL differentiation, 0.4 uM (% Quet)
[10] = read-out: 0.1 µM (% DMSO), alamarBlue viability, NCC library compound at 0.1 µM, sheet "All Tox data"
[11] = read-out: 1 µM (% DMSO), alamarBlue viability, NCC library compound at 1 µM, sheet "All Tox data"
[12] = read-out: 10 µM (% DMSO), alamarBlue viability, NCC library compound at 10 µM, sheet "All Tox data"
[13] = test compound at 2 uM, NCC library screen, relative to quetiapine, read-out: 2 uM (% Quet)
[14] = test compound at 10 uM, NCC library screen, relative to quetiapine, read-out: 10 uM (% Quet)

## CCC(=O)O[C@@H]1CC(=O)O[C@H](C)C/C=C/C=C/[C@H](O)[C@H](C)C[C@H](CC=O)[C@H](O[C@@H]2O[C@H](C)[C@@H](O[C@H]3C[C@@](C)(O)[C@@H](OC(=O)CC)[C@H](C)O3)[C@H](N(C)C)[C@H]2O)[C@H]1OC [Midecamycin]
Expanded OPCs; [2]
  viability at 0.1 µM: 92.7%
Expanded OPCs; [3]
  viability at 1 µM: 95.7%
Expanded OPCs; [4]
  viability at 10 µM: 91.2%
[1]; [5]
  activation at 2 µM: -0.9%
[1]; [6]
  activation at 10 µM: -11.3%

## O=C(O)c1cc(=O)c2c(OCC(O)COc3cccc4oc(C(=O)O)cc(=O)c34)cccc2o1 [Cromolyn Sodium]
Expanded OPCs; relative to DMSO control
  0.1 µM (% DMSO): 93.1 % DMSO
  1 µM (% DMSO): 94.0 % DMSO
  10 µM (% DMSO): 85.3 % DMSO
[1]; [7]
  activation at 2 µM: -3%
[1]; [8]
  activation at 10 µM: 3.7%

## CN(C)CCc1c[nH]c2ccc(Cn3cncn3)cc12 [Rizatriptan]
Expanded OPCs; [2]
  viability at 0.1 µM: 110%
Expanded OPCs; [3]
  viability at 1 µM: 94.8%
Expanded OPCs; [4]
  viability at 10 µM: 86.3%
[1]; [5]
  activation at 2 µM: -2.6%
[1]; [6]
  activation at 10 µM: -0.44%

## O=C(O[C@@H]1Cc2c(O)cc(O)cc2O[C@@H]1c1cc(O)c(O)c(O)c1)c1cc(O)c(O)c(O)c1 [Epigallocatechin gallate]
Expanded OPCs; sheet All Tox data
  0.1 µM (% DMSO): 81.9 % DMSO
  1 µM (% DMSO): 78.8 % DMSO
  10 µM (% DMSO): 48.5 % DMSO
[1]; 0.4 uM test compound, relative to quetiapine
  OL differentiation, 0.4 uM (% Quet): -15.9 % Quet
[1]; 2 uM test compound, relative to quetiapine
  OL differentiation, 2 uM (% Quet): 21.7 % Quet

## C=CCc1ccc(O)c(-c2ccc(O)c(CC=C)c2)c1 [Honokiol]
Expanded OPCs; [2]
  viability at 0.1 µM: 95.4%
Expanded OPCs; [3]
  viability at 1 µM: 78.2%
Expanded OPCs; [4]
  viability at 10 µM: 11.4%
[1]; [9]
  activation at 0.4 µM: 9.1%

## CC(C)c1nc(CN(C)C(=O)N[C@H](C(=O)N[C@@H](Cc2ccccc2)C[C@H](O)[C@H](Cc2ccccc2)NC(=O)OCc2cncs2)C(C)C)cs1 [Ritonavir]
Expanded OPCs; [2]
  viability at 0.1 µM: 96.5%
Expanded OPCs; [3]
  viability at 1 µM: 97.4%
Expanded OPCs; [4]
  viability at 10 µM: 69.8%
[1]; [5]
  activation at 2 µM: -21.7%
[1]; [6]
  activation at 10 µM: -35.8%

## CC(O)(CS(=O)(=O)c1ccc(F)cc1)C(=O)Nc1ccc(C#N)c(C(F)(F)F)c1 (stereo not drawn) [Bicalutamide]
Expanded OPCs; [2]
  viability at 0.1 µM: 93.3%
Expanded OPCs; [3]
  viability at 1 µM: 96%
Expanded OPCs; [4]
  viability at 10 µM: 119%
[1]; [5]
  activation at 2 µM: -3%
[1]; [6]
  activation at 10 µM: 6.9%

## CCC(C)(C)C(=O)O[C@H]1C[C@@H](C)C=C2C=C[C@H](C)[C@H](CC[C@@H]3C[C@@H](O)CC(=O)O3)[C@H]21 [Simvastatin]
Expanded OPCs; relative to DMSO control
  0.1 µM (% DMSO): 157.3 % DMSO
  1 µM (% DMSO): 86.5 % DMSO
  10 µM (% DMSO): 25.7 % DMSO
[1]; test compound at 0.4 uM, MBP expression relative to quetiapine, NCC library screen, read-out: 0.4 uM (% Quet)
  activation at 0.4 µM: -105%
[1]; [7]
  activation at 2 µM: -140%

## OCCOCCN1CCN(C2=Nc3ccccc3Sc3ccccc32)CC1 [Quetiapine hemifumarate]
Expanded OPCs; [10]
  viability at 0.1 µM: 118%
Expanded OPCs; [11]
  viability at 1 µM: 149%
Expanded OPCs; [12]
  viability at 10 µM: 117%
[1]; [13]
  activation at 2 µM: 130%
[1]; [14]
  activation at 10 µM: 87.7%

## C[C@]12C[C@H](O)[C@H]3[C@@H](CCC4=CC(=O)CC[C@@]43C)[C@@H]1CC[C@@H]2C(=O)CO [Corticosterone]
Expanded OPCs; [10]
  viability at 0.1 µM: 105%
Expanded OPCs; [11]
  viability at 1 µM: 108%
Expanded OPCs; [12]
  viability at 10 µM: 102%
[1]; [13]
  activation at 2 µM: 20.1%
[1]; [14]
  activation at 10 µM: 17.1%

## COc1ccc2c(c1)c(CC(=O)O)c(C)n2C(=O)c1ccc(Cl)cc1 [Indomethacin]
Expanded OPCs; [2]
  viability at 0.1 µM: 81.3%
Expanded OPCs; [3]
  viability at 1 µM: 85.4%
Expanded OPCs; [4]
  viability at 10 µM: 87.1%
[1]; [5]
  activation at 2 µM: -10.2%
[1]; [6]
  activation at 10 µM: 2.6%

## Nc1nc2c(ncn2COCCO)c(=O)[nH]1 [Acyclovir]
Expanded OPCs; relative to DMSO control
  0.1 µM (% DMSO): 98.2 % DMSO
  1 µM (% DMSO): 90.8 % DMSO
  10 µM (% DMSO): 91.7 % DMSO
[1]; [7]
  activation at 2 µM: 21.2%
[1]; [8]
  activation at 10 µM: 4.3%

## CC(C)(C)NC(=O)[C@@H]1C[C@@H]2CCCC[C@@H]2CN1C[C@@H](O)[C@H](Cc1ccccc1)NC(=O)[C@H](CC(N)=O)NC(=O)c1ccc2ccccc2n1 [Saquinavir]
Expanded OPCs; [10]
  viability at 0.1 µM: 95%
Expanded OPCs; [11]
  viability at 1 µM: 88.9%
Expanded OPCs; [12]
  viability at 10 µM: 14.5%
[1]; [9]
  activation at 0.4 µM: -24.5%
[1]; [5]
  activation at 2 µM: -82.7%

## CN(Cc1cnc2nc(N)nc(N)c2n1)c1ccc(C(=O)N[C@@H](CCC(=O)O)C(=O)O)cc1 [Methotrexate]
Expanded OPCs; [2]
  viability at 0.1 µM: 77.9%
Expanded OPCs; [3]
  viability at 1 µM: 68.5%
Expanded OPCs; [4]
  viability at 10 µM: 52.8%
[1]; [9]
  activation at 0.4 µM: -11%
[1]; [5]
  activation at 2 µM: 4.9%
